Data on one molecule can be found in article PMC9419673 (Nanoscale Advances, 2021).

Data set [1] in a line: Solubility in aqueous buffer. Type of data set: physicochemical. The conditions noted are these: pH 7.4, aqueous buffer.
A short description of data set [2]: Analytical RP-HPLC retention as a measure of hydrophobicity. Type of data set: physicochemical. The note with it: longer retention time compared to native EETI-II, Fig. 1.

As to `CCCCCCCCCCCCCCCC(=O)NCCCC[C@H](N)C(=O)NCC(=O)N[C@@H](CO)C(=O)NCC(=O)N[C@@H](CO)C(=O)NCC(=O)N[C@H]1CSSC[C@@H]2NC(=O)CNC(=O)[C@H](C)NC(=O)[C@H](CC(C)C)NC(=O)[C@@H]3CSSC[C@@H](C(=O)NCC(=O)O)NC(=O)[C@H](Cc4ccccc4)NC(=O)CNC(=O)[C@H](CC(N)=O)NC(=O)[C@@H]4CCCN4C(=O)CNC(=O)[C@H](CSSC[C@H](NC(=O)[C@H](CCCNC(=N)N)NC(=O)[C@H](CCSC)NC(=O)[C@H](CC(C)C)NC(=O)[C@H]([C@@H](C)CC)NC(=O)[C@H](CCCNC(=N)N)NC(=O)[C@@H]4CCCN4C1=O)C(=O)N[C@@H](CCCCN)C(=O)N[C@@H](CCC(N)=O)C(=O)N[C@@H](CC(=O)O)C(=O)N[C@@H](CO)C(=O)N[C@@H](CC(=O)O)C(=O)N3)NC(=O)[C@H](C(C)C)NC2=O` [CKP-C16, EETI-II-C16], the solubility in data set [1] is greater than 500 µM. Besides, in data set [2], the “hydrophobicity by analytical RP-HPLC retention time (in words)” value is “more hydrophobic than EETI-II (CKP)”.
